Data as given in ChEMBL document CHEMBL5729210, “Benzodiazepine derivatives as RSV inhibitors” (2022).

Assay: RSV-A Assay: The description is Japanese.

SMILES	EC50
O=C1Nc2ccccc2C(c2ccccc2)=NC1Nc1nnc(CCC(F)(F)F)o1 (stereo not drawn)	> 800 nM
O=C1Nc2ccccc2C(c2ccccc2)=NC1Nc1nnc(CCc2ccccc2)o1 (stereo not drawn)	> 800 nM
CC(C)c1nnc(NC2N=C(c3ccccc3)c3ccccc3NC2=O)o1 (stereo not drawn)	> 800 nM
CN1CCN(c2ncccc2-c2nnc(NC3N=C(c4ccccc4)c4ccccc4NC3=O)o2)CC1 (stereo not drawn)	> 800 nM
O=C1Nc2ccccc2C(c2ccccc2)=NC1Nc1nnc(-c2cccnc2N2C[C@@H]3C[C@H]2CO3)o1 (stereo partly drawn)	> 800 nM
COC(=O)c1sc(Br)cc1N1CCOCC1	< 400 nM
O=C1Nc2ccccc2C(c2ccccc2)=NC1Nc1nnc(-c2cccnc2N2C3CCC2COC3)o1 (stereo not drawn)	> 800 nM
O=C1Nc2ccccc2C(c2ccccc2)=N[C@@H]1Nc1nnc(-c2oc3ccccc3c2N2CCOCC2)o1	< 400 nM
N#CC1CCN(c2ncccc2-c2nnc(NC3N=C(c4ccccc4)c4ccccc4NC3=O)o2)CC1 (stereo not drawn)	> 800 nM
COC1CN(c2cc(C(F)(F)F)cnc2-c2nnc(N[C@H]3N=C(c4ccccc4)c4ccccc4NC3=O)o2)C1	> 800 nM
CCCc1nnc(NC2N=C(c3ccccc3)c3ccccc3NC2=O)o1 (stereo not drawn)	> 800 nM
O=C1Nc2ccccc2C(c2ccccc2)=NC1Nc1nnc(-c2ccccc2-c2ccncc2)o1 (stereo not drawn)	> 800 nM
COCc1nnc(NC2N=C(c3ccccc3)c3ccccc3NC2=O)o1 (stereo not drawn)	> 800 nM
C[C@H]1COCCN1c1ncccc1-c1nnc(NC2N=C(c3ccccc3)c3ccccc3NC2=O)o1 (stereo partly drawn)	> 800 nM
O=C1Nc2ccccc2C(c2ccccc2)=N[C@@H]1Nc1nnc(-c2cccnc2N2CCn3ncnc3C2)o1	> 800 nM
O=C1Nc2ccccc2C(c2ccccc2)=N[C@@H]1Nc1nnc(-c2ncc(C(F)(F)F)cc2N2CCC(F)CC2)o1	> 800 nM
O=C1Nc2ccccc2C(c2ccccc2)=N[C@@H]1Nc1nnc(-c2ncc(C(F)(F)F)cc2N2C3CCC2COC3)o1	< 400 nM
CN1CCN(c2ccc(-c3nnc(NC4N=C(c5ccccc5)c5ccccc5NC4=O)o3)cc2)CC1 (stereo not drawn)	> 800 nM
O=C1Nc2ccccc2C(c2ccccc2)=NC1Nc1nnc(C2CCCC2)o1 (stereo not drawn)	> 800 nM
O=C1Nc2ccccc2C(c2ccccc2)=NC1Nc1nnc(-c2ccc(N3CCCC3)cc2)o1 (stereo not drawn)	in the range around 600 nM
C[C@@H]1COCCN1c1ncccc1-c1nnc(NC2N=C(c3ccccc3)c3ccccc3NC2=O)o1 (stereo partly drawn)	< 400 nM
CC1(C)CC(c2nnc(NC3N=C(c4ccccc4)c4ccccc4NC3=O)o2)C1 (stereo not drawn)	> 800 nM
O=C1Nc2ccccc2C(c2ccccc2)=NC1Nc1nnc(-c2ccc(-n3cncn3)c(F)c2)o1 (stereo not drawn)	in the range around 600 nM
CN[C@H](c1ccccc1)c1nnc(NC2N=C(c3ccccc3)c3ccccc3NC2=O)o1 (stereo partly drawn)	> 800 nM

SMILES	EC50
O=C1Nc2ccccc2C(c2ccccc2)=NC1Nc1nnc(C2CCNC2)o1 (stereo not drawn)	> 800 nM
O=C1Nc2ccccc2C(c2ccccc2)=NC1Nc1nnc([C@@H]2CCCN2C2CCNCC2)o1 (stereo partly drawn)	> 800 nM
CN(C)CCOc1ccccc1-c1nnc(NC2N=C(c3ccccc3)c3ccccc3NC2=O)o1 (stereo not drawn)	> 800 nM
O=C1Nc2ccccc2C(c2ccccc2)=NC1Nc1nnc([C@@H]2CCCO2)o1 (stereo partly drawn)	> 800 nM
O=C1Nc2ccccc2C(c2ccccc2)=NC1Nc1nnc(C2CC(F)(F)C2)o1 (stereo not drawn)	> 800 nM
O=C1Nc2ccccc2C(c2ccccc2)=NC1Nc1nnc(C2CCC2)o1 (stereo not drawn)	> 800 nM
COC(=O)c1nc(C)sc1N1CCOCC1	< 400 nM
O=C1Nc2ccccc2C(c2ccccc2)=NC1Nc1nnc(-c2ccc(-n3ccnc3)nc2)o1 (stereo not drawn)	> 800 nM
CO[C@@H]1CCN(c2ccccc2-c2nnc(NC3N=C(c4ccccc4)c4ccccc4NC3=O)o2)C1 (stereo partly drawn)	> 800 nM
O=C1Nc2ccccc2C(c2ccccc2)=NC1Nc1nnc(-c2cccnc2N2CCCC(F)(F)C2)o1 (stereo not drawn)	> 800 nM
CC1(c2nnc(NC3N=C(c4ccccc4)c4ccccc4NC3=O)o2)CCNC1 (stereo not drawn)	> 800 nM
O=C1Nc2ccccc2C(c2ccccc2)=N[C@@H]1Nc1nnc(-c2cccnc2N2CCOCC2)o1	< 400 nM
Cc1cc(-c2nnc(NC3N=C(c4ccccc4)c4ccccc4NC3=O)o2)ccc1-n1cncn1 (stereo not drawn)	in the range around 600 nM
O=C1Nc2ccccc2C(c2ccccc2)=N[C@@H]1Nc1nnc(-c2ccc(N3C4CCC3COC4)cc2Cl)o1	> 800 nM
O=C1Nc2ccccc2C(c2ccccc2)=NC1Nc1nnc([C@H]2CCCO2)o1 (stereo partly drawn)	> 800 nM
O=C1Nc2ccccc2C(c2ccccc2)=NC1Nc1nnc(C2CC3(CCNCC3)C2)o1 (stereo not drawn)	> 800 nM
CC1(c2nnc(NC3N=C(c4ccccc4)c4ccccc4NC3=O)o2)CC1 (stereo not drawn)	> 800 nM
COC1CN(c2ncccc2-c2nnc(NC3N=C(c4ccccc4)c4ccccc4NC3=O)o2)C1 (stereo not drawn)	> 800 nM
O=C1Nc2ccccc2C(c2ccccc2)=NC1Nc1nnc(-c2cccnc2N2CCC(F)CC2)o1 (stereo not drawn)	> 800 nM
C[C@@H]1CN(c2ncccc2-c2nnc(NC3N=C(c4ccccc4)c4ccccc4NC3=O)o2)CCO1 (stereo partly drawn)	> 800 nM
O=C1Nc2ccccc2C(c2ccccc2)=NC1Nc1nnc(CC(F)(F)F)o1 (stereo not drawn)	> 800 nM
O=C1Nc2ccccc2C(c2ccccc2)=NC1Nc1nnc(-c2ccc(-n3cncn3)nc2)o1 (stereo not drawn)	> 800 nM
O=C1Nc2ccccc2C(c2ccccc2)=NC1Nc1nnc(-c2cccnc2N2CCC(O)CC2)o1 (stereo not drawn)	> 800 nM
N#CCCc1nnc(NC2N=C(c3ccccc3)c3ccccc3NC2=O)o1 (stereo not drawn)	> 800 nM

SMILES	EC50
CN1CCC(N2CCC[C@H]2c2nnc(NC3N=C(c4ccccc4)c4ccccc4NC3=O)o2)CC1 (stereo partly drawn)	> 800 nM
CN1C(=O)C(Nc2nnc(-c3ccc(F)cc3)o2)N=C(c2ccccc2)c2ccccc21 (stereo not drawn)	> 800 nM
CC(C)(Cc1ccccc1)c1nnc(NC2N=C(c3ccccc3)c3ccccc3NC2=O)o1 (stereo not drawn)	> 800 nM
O=C1Nc2ccccc2C(c2ccccc2)=NC1Nc1nnc(-c2ccc(-n3cccn3)nc2)o1 (stereo not drawn)	> 800 nM
O=C1Nc2ccccc2C(c2ccccc2)=NC1Nc1nnc(-c2cccc(-n3ccnc3)c2)o1 (stereo not drawn)	> 800 nM
O=C1Nc2ccccc2C(c2ccccc2)=NC1Nc1nnc(-c2ccc(-n3cnnc3)cc2)o1 (stereo not drawn)	> 800 nM
Cn1cc(-c2nnc(N[C@H]3N=C(c4ccccc4)c4ccccc4NC3=O)o2)c(N2CCOCC2)n1	< 400 nM
COCCOc1ccccc1-c1nnc(NC2N=C(c3ccccc3)c3ccccc3NC2=O)o1 (stereo not drawn)	> 800 nM
O=C1Nc2ccccc2C(c2ccccc2)=NC1Nc1nnc(-c2cccnc2N2CC3CCC(C2)O3)o1 (stereo not drawn)	in the range around 600 nM
CS(=O)(=O)Cc1nnc(NC2N=C(c3ccccc3)c3ccccc3NC2=O)o1 (stereo not drawn)	> 800 nM
C[C@@H]1CN(c2ccc(-c3nnc(N[C@H]4N=C(c5ccccc5)c5ccccc5NC4=O)o3)c(Cl)c2)C[C@H](C)O1	> 800 nM
O=C1Nc2ccccc2C(c2ccccc2)=NC1Nc1nnc(C2(F)CC2)o1 (stereo not drawn)	> 800 nM
COc1cc(-c2nnc(NC3N=C(c4ccccc4)c4ccccc4NC3=O)o2)ccc1-n1cnc(C)c1 (stereo not drawn)	> 800 nM
Cn1ncc(N2CCOCC2)c1-c1nnc(N[C@H]2N=C(c3ccccc3)c3ccccc3NC2=O)o1	in the range around 600 nM
O=C1Nc2ccccc2C(c2ccccc2)=NC1Nc1nnc(C2CCOC2)o1 (stereo not drawn)	> 800 nM
COC1CCN(c2cc(C(F)(F)F)cnc2-c2nnc(N[C@H]3N=C(c4ccccc4)c4ccccc4NC3=O)o2)CC1	> 800 nM
C[C@H]1CN(c2ncccc2-c2nnc(NC3N=C(c4ccccc4)c4ccccc4NC3=O)o2)CCO1 (stereo partly drawn)	in the range around 600 nM
O=C1Nc2ccccc2C(c2ccccc2)=NC1Nc1nnc(-c2cccnc2N2CC(F)(F)C2)o1 (stereo not drawn)	> 800 nM
N#Cc1ccc(-c2nnc(NC3N=C(c4ccccc4)c4ccccc4NC3=O)o2)s1 (stereo not drawn)	< 400 nM
CN(c1nnc(-c2ccc(F)cc2)o1)C1N=C(c2ccccc2)c2ccccc2NC1=O (stereo not drawn)	> 800 nM
O=C1Nc2ccccc2C(c2ccccc2)=NC1Nc1nnc(-c2cccnc2N2C[C@H]3COC[C@H]3C2)o1 (stereo partly drawn)	> 800 nM
CC1(C)C[C@@H]1c1nnc(NC2N=C(c3ccccc3)c3ccccc3NC2=O)o1 (stereo partly drawn)	> 800 nM
CO[C@H]1CCN(c2ncccc2-c2nnc(NC3N=C(c4ccccc4)c4ccccc4NC3=O)o2)C1 (stereo partly drawn)	> 800 nM
CC1(Nc2nnc(-c3ccc(F)cc3)o2)N=C(c2ccccc2)c2ccccc2NC1=O (stereo not drawn)	> 800 nM

SMILES	EC50
O=C1Nc2ccccc2C(c2ccccc2)=NC1Nc1nnc(-c2ccc(-n3ccnc3)cc2)o1 (stereo not drawn)	< 400 nM
O=C1Nc2ccccc2C(c2ccccc2)=NC1Nc1nnc(-c2cccnc2N2C[C@H]3C[C@@H]2CO3)o1 (stereo partly drawn)	> 800 nM
Cc1nc2ccc(-c3nnc(NC4N=C(c5ccccc5)c5ccccc5NC4=O)o3)cc2s1 (stereo not drawn)	in the range around 600 nM
COCCOc1ccc(C(=O)OC)cc1	> 800 nM
COc1cnc(-c2nnc(NC3N=C(c4ccccc4)c4ccccc4NC3=O)o2)c(F)c1 (stereo not drawn)	> 800 nM
O=C1Nc2ccccc2C(c2ccccc2)=NC1Nc1nnc(-c2ccccc2OC2CCOCC2)o1 (stereo not drawn)	> 800 nM
O=C1Nc2ccccc2C(c2ccccc2)=NC1Nc1nnc(-c2ccccc2N2CCCOCC2)o1 (stereo not drawn)	> 800 nM
Cc1ccc(-c2nnc(N[C@H]3N=C(c4ccccc4)c4ccccc4NC3=O)o2)c(N2CCOCC2)n1	< 400 nM
O=C1Nc2ccccc2C(c2ccccc2)=N[C@@H]1Nc1nnc(-c2ncc(C(F)(F)F)cc2N2CC3CCC(C2)O3)o1	< 400 nM
O=C1Nc2ccccc2C(c2ccccc2)=NC1Nc1nnc(-c2cccnc2N2CCCCC2)o1 (stereo not drawn)	> 800 nM
CN1CCN(c2ccccc2-c2nnc(NC3N=C(c4ccccc4)c4ccccc4NC3=O)o2)CC1 (stereo not drawn)	> 800 nM
O=C1Nc2ccccc2C(c2ccccc2)=NC1Nc1nnc(-c2ccc(OC3CCOCC3)cc2)o1 (stereo not drawn)	> 800 nM
O=C1Nc2ccccc2C(c2ccccc2)=NC1Nc1nnc(-c2ccccc2N2CCS(=O)(=O)CC2)o1 (stereo not drawn)	> 800 nM
O=C1Nc2ccccc2C(c2ccccc2)=NC1Nc1nnc(-c2ccc(-n3ccc(C(F)(F)F)n3)cc2)o1 (stereo not drawn)	> 800 nM
Cc1cc(-n2cncn2)ccc1-c1nnc(NC2N=C(c3ccccc3)c3ccccc3NC2=O)o1 (stereo not drawn)	> 800 nM
O=C1Nc2ccccc2C(c2ccccc2)=NC1Nc1nnc(-c2ccccc2NCc2ccccn2)o1 (stereo not drawn)	> 800 nM
CC(C)(O)c1nnc(NC2N=C(c3ccccc3)c3ccccc3NC2=O)o1 (stereo not drawn)	> 800 nM
CC(C)(C)c1nnc(NC2N=C(c3ccccc3)c3ccccc3NC2=O)o1 (stereo not drawn)	> 800 nM
Cc1nc(-c2nnc(NC3N=C(c4ccccc4)c4ccccc4NC3=O)o2)ccc1C#N (stereo not drawn)	in the range around 600 nM
Cn1nnc(-c2ccc(-c3nnc(NC4N=C(c5ccccc5)c5ccccc5NC4=O)o3)cc2)n1 (stereo not drawn)	> 800 nM
COC1CCN(c2ncccc2-c2nnc(NC3N=C(c4ccccc4)c4ccccc4NC3=O)o2)CC1 (stereo not drawn)	> 800 nM
